In patent US20250288683A1, “TETRAHYDROISOQUINOLINE HETEROBIFUNCTIONAL BCL-XL DEGRADERS” (Treeline Biosciences, Inc., priority 2022, published 2025):

Each compound was assayed against T1, Human BCL-XL protein (N-terminal HiBiT tagged BCL-XL in HT1080 cells) (Homo sapiens, UniProt Q07817) (assay: HiBiT based degradation assay). Settings: HT1080 cells expressing N-terminal HiBiT tagged BCL-XL, 6 h, normalized with DMSO control.
T1 construct: expressed in transfected cells; host or cells: HT-1080 (ATCC CCL-121), stably transduced with lentivirus pLV-UBC-N-HiBiT-BCL-XL-PGK-puro and selected with puromycin
Format: cell-based
Excerpt: HiBiT Based Degradation Assay
Human BCL-XL protein coding open reading frame fused with N-terminal HiBiT coding sequence was synthesized from Integrated DNA Technologies (IDT). Next, N-HiBiT-BCL-XL sequence was cloned into pLV-UBC-PGK-Puro, a lentivirus plasmid purchased from Vectorbuilder, to generate pLV-UBC-N-HiBiT-BCL-XL-PGK-puro. Lentiviral particles were generated from Lenti-X™ 293T cells (Clontech) by co-transfection of pLV-UBC-N-HiBiT-BCL-XL-PGK-puro plasmids and lentiviral packaging plasmid mix (Cellecta). HT-1080 [HT1080](ATCC CCL-121) cells were infected with the lentivirus, and HT1080 cells stably integrated with the lentiviral vectors were established by incubation with 1 μg/mL puromycin (Thermofisher).
HT1080 cells expressing N-terminal HiBiT tagged BCL-XL were dispensed into a 384-well plate pre-spotted with compounds at varying concentrations. Three thousand cells were seeded into each well in 40 μL of RPMI 1640 media. […] After incubation, luminescence was read on a PHERAstar FSX Plate Reader (BMG). BCL-XL degradation at each indicated concentration was normalized with the DMSO control. The BCL-XL degradation curves were plotted using a four-parameter logistic model. For compounds displaying hook effects, the curve fitting was performed using the bottom point of the hook curves (i.e., the point of Ymin) as the bottom plateau to calculate EC50.

T1 sequence (Q07817 whole entry): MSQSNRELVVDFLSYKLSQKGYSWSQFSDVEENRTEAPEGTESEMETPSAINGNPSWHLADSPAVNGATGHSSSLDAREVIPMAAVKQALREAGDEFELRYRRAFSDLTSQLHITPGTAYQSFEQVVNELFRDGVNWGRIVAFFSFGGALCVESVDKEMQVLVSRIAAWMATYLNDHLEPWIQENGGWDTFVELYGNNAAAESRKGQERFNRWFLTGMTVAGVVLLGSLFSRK

| Structure (SMILES) | Ymin (6 h) |
| --- | --- |
| Cc1ncsc1-c1ccc([C@H](C)NC(=O)[C@@H]2C[C@@H](O)CN2C(=O)[C@@H](NC(=O)CCCCCCCn2nc(C)c(-c3ccc(N4CCc5cccc(C(=O)Nc6nc7ccccc7s6)c5C4)nc3C(=O)O)c2C)C(C)(C)C)cc1 [Compound 103a, 6-[8-(1,3-benzothiazol-2-ylcarbamoyl)-3,4-dihydro-1H-isoquinolin-2-yl]-3-[1-[8-[[(1S)-1-[(2S,4R)-4-hydroxy-2-[[(1S)-1-[4-(4-methylthiazol-5-yl)phenyl]ethyl]carbamoyl]pyrrolidine-1-carbonyl]-2,2-dimethyl-propyl]amino]-8-oxo-octyl]-3,5-dimethyl-pyrazol-4-yl]pyridine-2-carboxylic acid] | A (Ymin < 50%) |
| Cc1ncsc1-c1ccc([C@H](C)NC(=O)[C@@H]2C[C@@H](O)CN2C(=O)[C@@H](NC(=O)CCCCCCCCCCCCCn2nc(C)c(-c3ccc(N4CCc5cccc(C(=O)Nc6nc7ccccc7s6)c5C4)nc3C(=O)O)c2C)C(C)(C)C)cc1 [Compound 104a, 6-[8-(1,3-benzothiazol-2-ylcarbamoyl)-3,4-dihydro-1H-isoquinolin-2-yl]-3-[1-[14-[[(1S)-1-[(2S,4R)-4-hydroxy-2-[[(1S)-1-[4-(4-methylthiazol-5-yl)phenyl]ethyl]carbamoyl]pyrrolidine-1-carbonyl]-2,2-dimethyl-propyl]amino]-14-oxo-tetradecyl]-3,5-dimethyl-pyrazol-4-yl]pyridine-2-carboxylic acid] | B (50% ≤ Ymin < 70%) |
| Cc1ncsc1-c1ccc([C@H](C)NC(=O)[C@@H]2C[C@@H](O)CN2C(=O)[C@@H](NC(=O)CCCCOc2cccc(-c3ccc(N4CCc5cccc(C(=O)Nc6nc7ccccc7s6)c5C4)nc3C(=O)O)c2C)C(C)(C)C)cc1 [Compound 108a, 6-[8-(1,3-benzothiazol-2-ylcarbamoyl)-3,4-dihydro-1H-isoquinolin-2-yl]-3-[3-[5-[[(1S)-1-[(2S,4R)-4-hydroxy-2-[[(1S)-1-[4-(4-methylthiazol-5-yl)phenyl]ethyl]carbamoyl]pyrrolidine-1-carbonyl]-2,2-dimethyl-propyl]amino]-5-oxo-pentoxy]-2-methyl-phenyl]pyridine-2-carboxylic acid] | A (Ymin < 50%) |

Same assay, conditions: HT1080 cells expressing N-terminal HiBiT tagged BCL-XL, 24 h, normalized with DMSO control

| Structure (SMILES) | Ymin (24 h) |
| --- | --- |
| Cc1ncsc1-c1ccc([C@H](C)NC(=O)[C@@H]2C[C@@H](O)CN2C(=O)[C@@H](NC(=O)C(F)(F)CCc2ccc(Oc3cccc(-c4ccc(N5CCc6cccc(C(=O)Nc7nc8ccccc8s7)c6C5)nc4C(=O)O)c3C)cc2)C(C)(C)C)cc1 [Compound 139a] | A (Ymin < 50%) |
| Cc1ncsc1-c1ccc([C@H](C)NC(=O)[C@@H]2C[C@@H](O)CN2C(=O)[C@@H](NC(=O)[C@@H](C)CCc2ccc(Oc3cccc(-c4ccc(N5CCc6cccc(C(=O)Nc7nc8ccccc8s7)c6C5)nc4C(=O)O)c3C)cc2)C(C)(C)C)cc1 (single isomer, unassigned) [Compound 143b] | A (Ymin < 50%) |
| Cc1ncsc1-c1ccc([C@H](C)NC(=O)[C@@H]2C[C@@H](O)CN2C(=O)[C@@H](NC(=O)CN2CCC(COc3cccc(-c4ccc(N5CCc6cccc(C(=O)Nc7nc8ccccc8s7)c6C5)nc4C(=O)O)c3C)CC2)C(C)(C)C)cc1 [Compound 127a, 6-[8-(1,3-benzothiazol-2-ylcarbamoyl)-3,4-dihydro-1H-isoquinolin-2-yl]-3-[3-[[1-[2-[[(1S)-1-[(2S,4R)-4-hydroxy-2-[[(1S)-1-[4-(4-methylthiazol-5-yl)phenyl]ethyl]carbamoyl]pyrrolidine-1-carbonyl]-2,2-dimethyl-propyl]amino]-2-oxo-ethyl]-4-piperidyl]methoxy]-2-methyl-phenyl]pyridine-2-carboxylic acid] | A (Ymin < 50%) |
| Cc1ncsc1-c1ccc([C@H](C)NC(=O)[C@@H]2C[C@@H](O)CN2C(=O)[C@@H](NC(=O)C[C@@H](Cc2ccc(Oc3cccc(-c4ccc(N5CCc6cccc(C(=O)Nc7nc8ccccc8s7)c6C5)nc4C(=O)O)c3C)cc2)C(F)(F)F)C(C)(C)C)cc1 (relative stereo) [Compound 131b, 6-(8-(benzo[d]thiazol-2-ylcarbamoyl)-3,4-dihydroisoquinolin-2 (1H)-yl)-3-(3-(4-((R)-4-(((S)-1-((2S,4R)-4-hydroxy-2-(((S)-1-(4-(4-methylthiazol-5-yl)phenyl)ethyl)carbamoyl)pyrrolidin-1-yl)-3,3-dimethyl-1-oxobutan-2-yl)amino)-4-oxo-2-(trifluoromethyl)butyl)phenoxy)-2-methylphenyl)picolinic acid] | B (50% ≤ Ymin < 70%) |
| Cc1ncsc1-c1ccc([C@@H](NC(=O)[C@@H]2C[C@@H](O)CN2C(=O)[C@@H](NC(=O)CCCc2ccc(Oc3cccc(-c4ccc(N5CCc6cccc(C(=O)Nc7nc8ccccc8s7)c6C5)nc4C(=O)O)c3C)cc2)C(C)(C)C)C(F)(F)F)cc1 [Compound 120a, 6-[8-(1,3-benzothiazol-2-ylcarbamoyl)-3,4-dihydro-1H-isoquinolin-2-yl]-3-[3-[4-[4-[[(1S)-1-[(2S,4R)-4-hydroxy-2-[[(1R)-2,2,2-trifluoro-1-[4-(4-methylthiazol-5-yl)phenyl]ethyl]carbamoyl]pyrrolidine-1-carbonyl]-2,2-dimethyl-propyl]amino]-4-oxo-butyl]phenoxy]-2-methyl-phenyl]pyridine-2-carboxylic acid] | A (Ymin < 50%) |
| Cc1ncsc1-c1ccc([C@H](C)NC(=O)[C@@H]2C[C@@H](O)CN2C(=O)[C@@H](NC(=O)CC[C@H](c2ccc(Oc3cccc(-c4ccc(N5CCc6cccc(C(=O)Nc7nc8ccccc8s7)c6C5)nc4C(=O)O)c3C)cc2)C(F)(F)F)C(C)(C)C)cc1 (relative stereo) [Compound 135b, 6-(8-(benzo[d]thiazol-2-ylcarbamoyl)-3,4-dihydroisoquinolin-2 (1H)-yl)-3-(2-methyl-3-(4-((R)-1,1,1-trifluoro-5-(((S)-1-((2S,4R)-4-hydroxy-2-(((S)-1-(4-(4-methylthiazol-5-yl)phenyl)ethyl)carbamoyl)pyrrolidin-1-yl)-3,3-dimethyl-1-oxobutan-2-yl)amino)-5-oxopentan-2-yl)phenoxy)phenyl)picolinic acid] | A (Ymin < 50%) |
| Cc1ncsc1-c1ccc([C@H](C)NC(=O)[C@@H]2C[C@@H](O)CN2C(=O)[C@@H](NC(=O)CN2CCC(CCCOc3cccc(-c4ccc(N5CCc6cccc(C(=O)Nc7nc8ccccc8s7)c6C5)nc4C(=O)O)c3C)CC2)C(C)(C)C)cc1 [Compound 124a, 6-[8-(1,3-benzothiazol-2-ylcarbamoyl)-3,4-dihydro-1H-isoquinolin-2-yl]-3-[3-[3-[1-[2-[[(1S)-1-[(2S,4R)-4-hydroxy-2-[[(1S)-1-[4-(4-methylthiazol-5-yl)phenyl]ethyl]carbamoyl]pyrrolidine-1-carbonyl]-2,2-dimethyl-propyl]amino]-2-oxo-ethyl]-4-piperidyl]propoxy]-2-methyl-phenyl]pyridine-2-carboxylic acid] | A (Ymin < 50%) |
| Cc1ncsc1-c1ccc([C@H](C)NC(=O)[C@@H]2C[C@@H](O)CN2C(=O)[C@@H](NC(=O)CCCCOc2cccc(-c3ccc(N4CCc5cccc(C(=O)Nc6nc7ccccc7s6)c5C4)nc3C(=O)O)c2C)C(C)(C)C)cc1 [Compound 108a, 6-[8-(1,3-benzothiazol-2-ylcarbamoyl)-3,4-dihydro-1H-isoquinolin-2-yl]-3-[3-[5-[[(1S)-1-[(2S,4R)-4-hydroxy-2-[[(1S)-1-[4-(4-methylthiazol-5-yl)phenyl]ethyl]carbamoyl]pyrrolidine-1-carbonyl]-2,2-dimethyl-propyl]amino]-5-oxo-pentoxy]-2-methyl-phenyl]pyridine-2-carboxylic acid] | A (Ymin < 50%) |
| Cc1ncsc1-c1ccc([C@H](C)NC(=O)[C@@H]2C[C@@H](O)CN2C(=O)[C@@H](NC(=O)CN2CCC(CCOc3cccc(-c4ccc(N5CCc6cccc(C(=O)Nc7nc8ccccc8s7)c6C5)nc4C(=O)O)c3C)CC2)C(C)(C)C)cc1 [Compound 123a, 6-(8-(benzo[d]thiazol-2-ylcarbamoyl)-3,4-dihydroisoquinolin-2 (1H)-yl)-3-(3-(2-(1-(2-(((S)-1-((2S,4R)-4-hydroxy-2-(((S)-1-(4-(4-methylthiazol-5-yl)phenyl)ethyl)carbamoyl)pyrrolidin-1-yl)-3,3-dimethyl-1-oxobutan-2-yl)amino)-2-oxoethyl)piperidin-4-yl)ethoxy)-2-methylphenyl)picolinic acid] | A (Ymin < 50%) |
| Cc1ncsc1-c1ccc([C@H](C)NC(=O)[C@@H]2C[C@@H](O)CN2C(=O)[C@@H](NC(=O)C(C)(C)CCc2ccc(Oc3cccc(-c4ccc(N5CCc6cccc(C(=O)Nc7nc8ccccc8s7)c6C5)nc4C(=O)O)c3C)cc2)C(C)(C)C)cc1 [Compound 133a, 6-[8-(1,3-benzothiazol-2-ylcarbamoyl)-3,4-dihydro-1H-isoquinolin-2-yl]-3-[3-[4-[4-[[(1S)-1-[(2S,4R)-4-hydroxy-2-[[(1S)-1-[4-(4-methylthiazol-5-yl)phenyl]ethyl]carbamoyl]pyrrolidine-1-carbonyl]-2,2-dimethyl-propyl]amino]-3,3-dimethyl-4-oxo-butyl]phenoxy]-2-methyl-phenyl]pyridine-2-carboxylic acid] | B (50% ≤ Ymin < 70%) |
| Cc1ncsc1-c1ccc(CNC(=O)[C@@H]2C[C@@H](O)CN2C(=O)[C@@H](NC(=O)C2(F)CC2)C(C)(C)SCCCCCCCOc2cccc(-c3ccc(N4CCc5cccc(C(=O)Nc6nc7ccccc7s6)c5C4)nc3C(=O)O)c2C)cc1 [Compound 140a] | B (50% ≤ Ymin < 70%) |
